In data set [1] the target is T1, recombinant human VEGF-R2 (Homo sapiens, UniProt P35968).
T1 construct: purchased Cell signaling technology #7787
The data set is described as follows: VEGFR-2 kinase assay (ELISA, time-resolved fluorescence). The class given is biochemical. Particulars: recombinant human VEGF-R2, 10 μM ATP, 25° C., 30 minutes; read-out: IC50 (VEGFR-2/bio). On the procedure:
This assay is used to measure the in vitro kinase activity of recombinant human VEGF-R2 in an ELISA assay.
• a. […] Stop Buffer: 50 mM EDTA, pH 8.0. • d.
The following protocol was used: • 1. The test compound was diluted with DMSO to the desired final assay concentration. […] 6 μM substrate peptide (Tyr87) was diluted with dH2O (1:1), 15 μl was added to every assay. • 3. VEGFR-2 enzyme was immediately transferred from −80° C. to ice, and the enzyme was allowed to thaw on ice. • 4. 2.2 μg VEGFR-2 enzyme was taken to the enzyme tube. • 5. […] 0.75 ml of DTT/Kinase buffer was transferred to each enzyme tube to prepare 4× reaction cocktail, and 7.5 μl 4× reaction cocktail was added to every assay. • 7. […] The reaction tube was incubated at 25° C. for 30 minutes. • 9. 30 μl/assay stop buffer (50 mM EDTA, pH 8.0) was added to stop the reaction. • 10. 25 μl of each reaction and 75 μl dH2O/well was transferred to a 96-well streptavidin coated plate, with shaking at room temperature for 60 minutes. • 11. Each well was washed three times with 200 μl PBS-T buffer. Plate was patted on paper towel to remove excess liquid. • 12. […] The reaction tube was incubated, with shaking at room temperature for 60 minutes. • 14. Washing was carried out as described above in step 11. • 15. Europium labeled anti-mouse IgG was diluted 1:500 in PBS-T buffer with 1% BSA, 100 μl diluted antibody was added to each well. • 16. The reaction tube was incubated, with shaking at room temperature for 30 minutes. • 17. Each well was washed five times with 200 μl PBS-T buffer. Plate was patted on paper towel to remove excess liquid. • 18. 100 μl/well DELFIA® Enhancement Solution was added. • 19. The reaction tube was incubated, with shaking at room temperature for 5 minutes. • 20.
The IC50 value can be derived from the IRs of compounds at different concentration gradients.

Another data set has as its system HT-29 human colon cancer. The data set can be described thus: Therapeutic effects against xenografts of HT-29 human colon cancer in nude mice. The class given is in vivo. On the procedure:
The therapeutic effects of Example 63 against xenografts of HT-29 human colon cancer in nude mice were estimated.
The therapeutic effects of the compound of Example 63 against xenografts of HT-29 human colon cancer in nude mice were estimated.
Preparation method: the compound of Example 63 was prepared to corresponding concentration with distilled water.
Six to seven-week-old BALB/cA-nude female mice was purchased from Slaccas Experimental Animal. Certificate No.: SCXK(Shanghai) 2003˜0003. Raising Conditions: SPF level.
Nude mice were hypodermic inoculated HT-29 human colon cancer cell. After tumors grew to 100-300 mm^3, mice were randomly divided into teams (d0). The volume of tumors and weigh of the mice were measured for 2-3 times per week. The calculation formula of the volume of tumor (V) is: V=½×a×b^2, a: length of tumor, b: width of tumor.
(In general: Xenograft models place foreign cells or tissue in a host animal.)

The next data set has as its system HUVEC cell. The data set is described as follows: Inhibition of cell proliferation assay (SRB) on VEGFR high expressing HUVEC cells. Particulars: Homo sapiens, 72 h, read-out: IC50 (VEGFR/HUVEC).

“Also recorded” adds a separate entry of the source. Marks after values point to notes of the source that are not given here.

T1 sequence (P35968 20-1356): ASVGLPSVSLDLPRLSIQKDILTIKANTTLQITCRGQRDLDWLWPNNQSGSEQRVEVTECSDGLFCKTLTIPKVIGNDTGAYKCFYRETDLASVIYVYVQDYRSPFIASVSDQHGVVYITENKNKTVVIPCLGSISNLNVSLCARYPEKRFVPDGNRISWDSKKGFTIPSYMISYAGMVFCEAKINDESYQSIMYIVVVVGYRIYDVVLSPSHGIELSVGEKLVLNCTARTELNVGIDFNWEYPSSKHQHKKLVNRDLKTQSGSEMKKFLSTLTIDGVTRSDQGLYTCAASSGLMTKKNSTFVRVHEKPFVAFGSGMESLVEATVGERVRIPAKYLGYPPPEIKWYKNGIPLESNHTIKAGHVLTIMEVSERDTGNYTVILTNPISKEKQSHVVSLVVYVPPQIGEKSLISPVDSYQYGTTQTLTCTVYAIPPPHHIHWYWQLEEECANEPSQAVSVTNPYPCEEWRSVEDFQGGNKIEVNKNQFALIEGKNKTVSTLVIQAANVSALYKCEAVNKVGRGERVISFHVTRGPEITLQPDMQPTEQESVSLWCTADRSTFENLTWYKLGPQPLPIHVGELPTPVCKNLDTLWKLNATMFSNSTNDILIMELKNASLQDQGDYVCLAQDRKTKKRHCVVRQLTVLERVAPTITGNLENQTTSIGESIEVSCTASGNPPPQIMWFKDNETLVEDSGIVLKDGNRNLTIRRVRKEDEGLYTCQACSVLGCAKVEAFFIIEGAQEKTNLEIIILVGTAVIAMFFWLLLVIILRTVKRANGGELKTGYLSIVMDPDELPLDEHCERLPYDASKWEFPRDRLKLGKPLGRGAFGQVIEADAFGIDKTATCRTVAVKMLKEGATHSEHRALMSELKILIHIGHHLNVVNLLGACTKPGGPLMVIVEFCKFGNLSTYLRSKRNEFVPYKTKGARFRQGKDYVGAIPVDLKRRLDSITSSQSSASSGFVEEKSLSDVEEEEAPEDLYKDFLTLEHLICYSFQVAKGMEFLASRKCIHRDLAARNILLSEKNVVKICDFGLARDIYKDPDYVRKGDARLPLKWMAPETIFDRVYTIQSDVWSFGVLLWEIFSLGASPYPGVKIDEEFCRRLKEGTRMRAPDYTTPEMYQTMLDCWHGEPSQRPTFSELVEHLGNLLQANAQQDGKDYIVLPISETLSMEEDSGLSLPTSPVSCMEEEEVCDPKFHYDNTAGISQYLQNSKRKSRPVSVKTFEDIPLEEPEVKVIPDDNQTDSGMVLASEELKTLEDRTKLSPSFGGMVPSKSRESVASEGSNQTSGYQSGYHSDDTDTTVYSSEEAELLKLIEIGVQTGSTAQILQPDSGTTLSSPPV
Method for HUVEC cell: The following in vitro assay may be used to determine the level of activity and effect of different compounds of the present invention on the proliferation inhibition (cell toxic) of endothelium growth factor receptor (VEGFR) high expressing Homo sapiens cancer cell-HUVEC cell.
Then the cells are put back to the incubator and cultured for continuous 72 hours. 72 hours later, the cell exposed to compounds and control cell are assayed for their proliferation using Sulforhodamine B (SRB) method.
HUVEC cells were grown in growth media (DMEM/F12, supplemented with 10% FBS) in 100 mm corning culture plates till confluence at 37° C., 5% CO2. • 2. HUVEC cells were washed in 100 mm plates with FBS, then the cells were harvested by trypsinization and seeded to corning 96-well cell culture plates at concentration of 50000 cells/ml, leaving 6 wells/each plate empty as background. • 3. […] The compounds stock solution was prepared, using DMSO to solve candidate compounds to a concentration of 20 mM. Then DMSO was used to dilute the stock solution to a serious concentration of tested compounds solution (namely, 2 mM, 1 mM, 0.2 mM, 20 μM, 2 μM, 0.2 μM). • 5. […] Each DMSO serial concentration compound solution was diluted by 20 times with culture medium by adding 5 μl DMSO compound solution to 95 μl culture medium, then mixed well by vortex. This promised that the DMSO concentration at that the HUVEC cell will exposed to will not surpass 0.5%. • 6. […] Each well was added 180 μl medium, then 20 μl medium solution of tested compounds prepared at step 5 was added to each well. For negative control group cell, 20 μl culture medium containing 0.5% pure DMSO was added. So, HUVEC cells were exposed to each tested compound at a serial final concentration of 100 μM, 10 μM, 5 μM, 1 μM, 0.1 μM, 0.01 μM, and 0.001 μM. • 7. The culture plates were put back to incubator, and cultured for 72 hours at 37° C., 5% CO2. • 8. 72 hours later, cultures were removed from incubator into sterile work area. • 9. The fixative (50% Trichloroacetic Acid-TCA) was prepared by adding reagent grade water to the TCA, fixing the cells by gently layering 50 μl of cold TCA solution on top of the growth medium. • 10. The plates was incubated for 1 hour at 4° C. and then rinsed with water several times to remove TCA, serum proteins, etc. Plates were air dried and stored until use. Bland background optical density was measured in wells incubated with growth medium without cells. • 11. 0.4% Sulforhodamine B solution was prepared by using 10% acetic acid solution. 50 μl sulforhodamine B solution was added to each well of 96-well plates. • 12. The cells were allowed to stain for 30 minutes. • 13. The wash solution of 10% acetic acid was prepared. At the end of the staining period, the stain was removed and the cells were rinsed quickly with 1% acetic acid. Repeat until unincorporated dye was removed. Wash times were kept to a minimum to reduce desorption of protein-bound dye. After being rinsed, the cultures were air dried. • 14. […] Then cultures were allowed to stand for 5 minutes at room temperature, and the mixing of the dye was enhanced by gentle stirring in a gyratory shaker. • 15. The absorbance was measured by spectrophotometry at a wavelength of 565 nm. The background absorbance of 96-well plates at 690 nm was measured and subtracted from the measurement at 565 nm. • 16. The inhibition rate (IR) was calculated as follows:

With `COCC(=O)Nc1cc2c(cc1F)/C(=C/c1[nH]c3c(c1C)C(=O)N(CCN1CCOCC1)CCC3)C(=O)N2` [Example 18, (Z)—N-{5-Fluoro-3-[3-methyl-5-(2-morpholin-4-yl-ethyl)-4-oxo-1,4,5,6,7,8-hexahydro-pyrrolo[3,2-c]azepin-2-ylmethylene]-2-oxo-2,3-dihydro-1H-indol-6-yl}-2-methoxy-acetamide], the IC50 in data set [1] is 0.01 µM.
In the case of `CCN(CC)CCN1CCCc2[nH]c(/C=C3\C(=O)Nc4ccc(F)cc43)c(C)c2C1=O` [Example 63, malate], in the data set with HT-29 human colon cancer (40 mg/kg p.o d0~12, P < 0.01 vs control), the “T/C (%)” value is 31.5* %. Besides, the “RTV (relative tumor volume)” value in the data set with HT-29 human colon cancer (X ± SD, 40 mg/kg p.o d0~12, dn vs d0) is 0.80 ± 0.42. Besides, the “TV (volume of tumor) dn” value in the data set with HT-29 human colon cancer (X ± SD, 40 mg/kg p.o d0~12, dn: the 13th day after the first dosage) is listed as 300 ± 154 mm^3. Also, in the data set on HT-29 human colon cancer (continuous oral dosing, nude mice, malate), the “tolerance of mice to the compound (in words)” value is reported as “well tolerant; also recorded: well tolerant to the compound without obvious toxicity”.
Take `CCN(CC)CCN1CCCc2[nH]c(/C=C3\C(=O)Nc4cc(NCc5ccc(F)cc5)c(F)cc43)c(C)c2C1=O` [Example 3, (Z)-5-(2-Diethylamino-ethyl)-2-[5-fluoro-6-(4-fluoro-benzylamino)-2-oxo-1,2-dihydro-indol-3-ylidenemethyl]-3-methyl-5,6,7,8-tetrahydro-1H-pyrrolo[3,2-c]azepin-4-one]: the IC50 in data set [1] was found to be 0.28 µM; in the data set on HUVEC cell it was 0.1 µM.
With `CCN(CC)CCN1CCCc2[nH]c(/C=C3\C(=O)Nc4cc(NC(=O)[C@H](C)O)c(F)cc43)c(C)c2C1=O` [Example 8, (S,Z)—N-{3-[5-(2-Diethylamino-ethyl)-3-methyl-4-oxo-1,4,5,6,7,8-hexahydro-pyrrolo[3,2-c]azepin-2-ylmethylene]-5-fluoro-2-oxo-2,3-dihydro-1H-indol-6-yl}-2-hydroxy-propionamide], the IC50 in data set [1] worked out at 0.115 µM; in the data set on HUVEC cell, 0.308 µM.
For `CCN(CC)CCN1CCCc2[nH]c(/C=C3\C(=O)Nc4ccc(Cl)cc43)c(C)c2C1=O` [Example 2], in that order: 0.021 µM and 0.288 µM.
The corresponding values for `CCN(CC)CCN1CCCc2[nH]c(/C=C3\C(=O)Nc4cc(OC)ccc43)c(C)c2C1=O` [Example 15, (Z)-5-(2-Diethylamino-ethyl)-2-(6-methoxy-2-oxo-1,2-dihydro-indol-3-ylidenemethyl)-3-methyl-5,6,7,8-tetrahydro-1H-pyrrolo[3,2-c]azepin-4-one] are 0.002 µM and 1.2 µM.
The corresponding values for `Cc1c(/C=C2\C(=O)Nc3ccc(Cl)cc32)[nH]c2c1C(=O)N(CCN1CCOCC1)CCC2` [Example 10] are 0.014 µM and 0.123 µM.
Consider `CCN(CC)CCN1CCCc2[nH]c(/C=C3\C(=O)Nc4c(Br)cc(F)cc43)c(C)c2C1=O` [Example 4, (Z)-2-(7-Bromo-5-fluoro-2-oxo-1,2-dihydro-indol-3-ylidenemethyl)-5-(2-diethylamino-ethyl)-3-methyl-5,6,7,8-tetrahydro-1H-pyrrolo[3,2-c]azepin-4-one], for which the results for the IC50 (in data set [1]; in the data set with HUVEC cell) were 0.041 µM and 0.404 µM, respectively.
The corresponding values for `CCN(CC)CCN1CCCc2[nH]c(/C=C3\C(=O)Nc4ncc(Br)cc43)c(C)c2C1=O` [Example 14] are 0.004 µM and 0.457 µM.
The corresponding values for `Cc1c(/C=C2\C(=O)Nc3cc(NCc4ccc(F)cc4)c(F)cc32)[nH]c2c1C(=O)N(CCN1CCOCC1)CCC2` [Example 19, (Z)-2-[5-Fluoro-6-(4-fluoro-benzylamino)-2-oxo-1,2-dihydro-indol-3-ylidenemethyl]-3-methyl-5-(2-morpholin-4-yl-ethyl)-5,6,7,8-tetrahydro-1H-pyrrolo[3,2-c]azepin-4-one] are 0.012 µM and 0.146 µM.
The corresponding values for `CCN(CC)CCN1CCCc2[nH]c(/C=C3\C(=O)Nc4cccc(Br)c43)c(C)c2C1=O` [Example 13, (Z)-2-(4-Bromo-2-oxo-1,2-dihydro-indol-3-ylidenemethyl)-5-(2-diethylamino-ethyl)-3-methyl-5,6,7,8-tetrahydro-1H-pyrrolo[3,2-c]azepin-4-one] are 0.003 µM and 0.804 µM.
Consider `CCN(CC)CCN1CCCc2[nH]c(/C=C3\C(=O)Nc4cccc(CCO)c43)c(C)c2C1=O` [Example 17, (Z)-5-(2-Diethylamino-ethyl)-2-[4-(2-hydroxy-ethyl)-2-oxo-1,2-dihydro-indol-3-ylidenemethyl]-3-methyl-5,6,7,8-tetrahydro-1H-pyrrolo[3,2-c]azepin-4-one], for which the IC50 turned out to be 0.001 µM in data set [1] and 0.129 µM in the data set on HUVEC cell.
On to `Cc1c(/C=C2\C(=O)Nc3c(NC=O)cc(F)cc32)[nH]c2c1C(=O)N(CCN1CCOCC1)CCC2` [Example 20, (Z)—N-{5-Fluoro-3-[3-methyl-5-(2-morpholin-4-yl-ethyl)-4-oxo-1,4,5,6,7,8-hexahydro-pyrrolo[3,2-c]azepin-2-ylmethylene]-2-oxo-2,3-dihydro-1H-indol-7-yl}-formamide], for which, in data set [1], the IC50 was determined as 0.072 µM.
With `CCN(CC)CCN1CCCc2[nH]c(/C=C3\C(=O)Nc4cccc(-c5cccc(F)c5F)c43)c(C)c2C1=O` [Example 6, (Z)-5-(2-Diethylamino-ethyl)-2-[4-(2,3-difluoro-phenyl)-2-oxo-1,2-dihydro-indol-3-ylidenemethyl]-3-methyl-5,6,7,8-tetrahydro-1H-pyrrolo[3,2-c]azepin-4-one], the IC50 was 0.023 µM in data set [1] and 0.28 µM in the data set on HUVEC cell.
Regarding `CCN(CC)CCN1CCCc2[nH]c(/C=C3\C(=O)Nc4cccc(C)c43)c(C)c2C1=O` [Example 16, (Z)-5-(2-Diethylamino-ethyl)-3-methyl-2-(4-methyl-2-oxo-1,2-dihydro-indol-3-ylidenemethyl)-5,6,7,8-tetrahydro-1H-pyrrolo[3,2-c]azepin-4-one], the IC50 in data set [1] was 0.0013 µM; in the data set with HUVEC cell, 0.21 µM.
For the molecule `CCN(CC)CCN1CCCc2[nH]c(/C=C3\C(=O)Nc4cc(NC(=O)COC)c(F)cc43)c(C)c2C1=O` [Example 7, (Z)—N-{3-[5-(2-Diethylamino-ethyl)-3-methyl-4-oxo-1,4,5,6,7,8-hexahydro-pyrrolo[3,2-c]azepin-2-ylmethylene]-5-fluoro-2-oxo-2,3-dihydro-1H-indol-6-yl}-2-methoxy-acetamide], the IC50 in data set [1] worked out at 0.69 µM.
With `CCN(CC)CCN1CCCc2[nH]c(/C=C3\C(=O)Nc4cc(NC(=O)C(C)(C)O)c(F)cc43)c(C)c2C1=O` [Example 9, (Z)—N-{3-[5-(2-Diethylamino-ethyl)-3-methyl-4-oxo-1,4,5,6,7,8-hexahydro-pyrrolo[3,2-c]azepin-2-ylmethylene]-5-fluoro-2-oxo-2,3-dihydro-1H-indol-6-yl}-2-hydroxy-2-methyl-propionamide], the IC50 in data set [1] is 0.49 µM; in the data set on HUVEC cell, 0.068 µM.
On to `Cc1c(/C=C2\C(=O)Nc3cc(NC(=O)[C@H](C)O)c(F)cc32)[nH]c2c1C(=O)N(CCN1CCOCC1)CCC2` [Example 21, (S,Z)—N-{5-Fluoro-3-[3-methyl-5-(2-morpholin-4-yl-ethyl)-4-oxo-1,4,5,6,7,8-hexahydro-pyrrolo[3,2-c]azepin-2-ylmethylene]-2-oxo-2,3-dihydro-1H-indol-6-yl}-2-hydroxy-propionamide], for which the IC50 in data set [1] is 0.16 µM.
As for `Cc1c(/C=C2\C(=O)Nc3cccc(-c4cccc(F)c4F)c32)[nH]c2c1C(=O)N(CCN1CCOCC1)CCC2` [Example 12, (Z)-2-[4-(2,3-Difluoro-phenyl)-2-oxo-1,2-dihydro-indol-3-ylidenemethyl]-3-methyl-5-(2-morpholin-4-yl-ethyl)-5,6,7,8-tetrahydro-1H-pyrrolo[3,2-c]azepin-4-one], the IC50 worked out at 0.001 µM in data set [1] and 0.3 µM in the data set with HUVEC cell.
Consider `CCN(CC)CCN1CCCc2[nH]c(/C=C3\C(=O)Nc4ccc(Br)cc43)c(C)c2C1=O` [Example 5], for which the IC50 in data set [1] was determined as 0.0085 µM; in the data set on HUVEC cell it was 0.1 µM.

These data come from patent US20130303518A1, “Methods of Inhibiting the Catalytic Activity of a Protein Kinase and of Treating a Protein Kinase Related Disorder” (JIANGSU HANSOH PHARMACEUTICAL CO., LTD., priority 2007, published 2013).
